{"source": "PubChem BioAssay (NCI)", "experiment_in_all_cases": "growth of human tumour cells (NCI), 48 h", "key": {"SF-539 CNS": {"system": "SF-539 CNS"}, "HCT-116 colon": {"system": "HCT-116 colon"}, "TK-10 renal": {"system": "TK-10 renal"}, "HT29 colon": {"system": "HT29 colon"}, "RPMI-8226 leukemia": {"system": "RPMI-8226 leukemia"}, "COLO 205 colon": {"system": "COLO 205 colon"}, "SF-295 CNS": {"system": "SF-295 CNS"}, "IGROV1 ovarian": {"system": "IGROV1 ovarian"}, "NCI/ADR-RES ovarian": {"system": "NCI/ADR-RES ovarian"}, "MDA-MB-435": {"system": "MDA-MB-435"}, "HOP-92 NSCLC": {"system": "HOP-92 NSCLC"}, "A549 NSCLC": {"system": "A549 NSCLC"}, "SNB-19 CNS": {"system": "SNB-19 CNS"}, "SK-MEL-2 melanoma": {"system": "SK-MEL-2 melanoma"}, "HCT-15 colon": {"system": "HCT-15 colon"}, "SR leukemia": {"system": "SR leukemia"}, "T-47D breast": {"system": "T-47D breast"}, "K-562 leukemia": {"system": "K-562 leukemia"}, "LOX IMVI melanoma": {"system": "LOX IMVI melanoma"}, "MDA-MB-231 breast": {"system": "MDA-MB-231 breast"}, "KM12 colon": {"system": "KM12 colon"}, "OVCAR-4 ovarian": {"system": "OVCAR-4 ovarian"}, "SN12C renal": {"system": "SN12C renal"}, "ACHN renal": {"system": "ACHN renal"}, "NCI-H23 lung": {"system": "NCI-H23 lung"}}, "note": "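Following 48 hours of exposure in 96-well plates, responses at five concentrations were used to interpolate endpoints linearly. GI50: concentration for 50% inhibition of growth. The concentration for full growth arrest is given as TGI.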", "data": [{"smiles": "N#CC1=C(N)N=C(N2CCCCC2)C(C#N)C12Nc1ccccc1S2", "note": "(stereo not given)", "values": [{"measurement": "GI50", "setting": "SF-539 CNS", "result": 30.7, "unit": "µM"}, {"measurement": "TGI", "setting": "SF-539 CNS", "result": 75.4, "unit": "µM"}, {"measurement": "GI50", "setting": "HCT-116 colon", "result": 23, "unit": "µM"}, {"measurement": "TGI", "setting": "HCT-116 colon", "result": "> 100", "unit": "µM"}, {"measurement": "GI50", "setting": "TK-10 renal", "result": 29.6, "unit": "µM"}, {"measurement": "TGI", "setting": "TK-10 renal", "result": "> 100", "unit": "µM"}, {"measurement": "GI50", "setting": "HT29 colon", "result": 29.8, "unit": "µM"}, {"measurement": "TGI", "setting": "HT29 colon", "result": "> 100", "unit": "µM"}, {"measurement": "GI50", "setting": "RPMI-8226 leukemia", "result": 84, "unit": "µM"}, {"measurement": "TGI", "setting": "RPMI-8226 leukemia", "result": "> 100", "unit": "µM"}, {"measurement": "GI50", "setting": "COLO 205 colon", "result": 29.3, "unit": "µM"}, {"measurement": "TGI", "setting": "COLO 205 colon", "result": 82.6, "unit": "µM"}, {"measurement": "GI50", "setting": "SF-295 CNS", "result": 37.7, "unit": "µM"}, {"measurement": "TGI", "setting": "SF-295 CNS", "result": "> 100", "unit": "µM"}, {"measurement": "GI50", "setting": "IGROV1 ovarian", "result": 58.9, "unit": "µM"}, {"measurement": "TGI", "setting": "IGROV1 ovarian", "result": "> 100", "unit": "µM"}, {"measurement": "GI50", "setting": "NCI/ADR-RES ovarian", "result": 20, "unit": "µM"}, {"measurement": "TGI", "setting": "NCI/ADR-RES ovarian", "result": 68.6, "unit": "µM"}, {"measurement": "GI50", "setting": "MDA-MB-435", "result": 0.0184, "unit": "µM"}, {"measurement": "TGI", "setting": "MDA-MB-435", "result": 14.3, "unit": "µM"}, {"measurement": "GI50", "setting": "HOP-92 NSCLC", "result": 26.9, "unit": "µM"}, {"measurement": "TGI", "setting": "HOP-92 NSCLC", "result": "> 100", "unit": "µM"}, {"measurement": "GI50", "setting": "A549 NSCLC", "result": 29.5, "unit": "µM"}, {"measurement": "TGI", "setting": "A549 NSCLC", "result": "> 100", "unit": "µM"}, {"measurement": "GI50", "setting": "SNB-19 CNS", "result": 41, "unit": "µM"}, {"measurement": "TGI", "setting": "SNB-19 CNS", "result": "> 100", "unit": "µM"}, {"measurement": "GI50", "setting": "SK-MEL-2 melanoma", "result": 36.4, "unit": "µM"}, {"measurement": "TGI", "setting": "SK-MEL-2 melanoma", "result": 79, "unit": "µM"}, {"measurement": "GI50", "setting": "HCT-15 colon", "result": 22, "unit": "µM"}, {"measurement": "TGI", "setting": "HCT-15 colon", "result": "> 100", "unit": "µM"}, {"measurement": "GI50", "setting": "SR leukemia", "result": "> 100", "unit": "µM"}, {"measurement": "TGI", "setting": "SR leukemia", "result": "> 100", "unit": "µM"}, {"measurement": "GI50", "setting": "T-47D breast", "result": 35, "unit": "µM"}, {"measurement": "TGI", "setting": "T-47D breast", "result": "> 100", "unit": "µM"}, {"measurement": "GI50", "setting": "K-562 leukemia", "result": "> 100", "unit": "µM"}, {"measurement": "TGI", "setting": "K-562 leukemia", "result": "> 100", "unit": "µM"}, {"measurement": "GI50", "setting": "LOX IMVI melanoma", "result": 20.7, "unit": "µM"}, {"measurement": "TGI", "setting": "LOX IMVI melanoma", "result": 51.8, "unit": "µM"}, {"measurement": "GI50", "setting": "MDA-MB-231 breast", "result": 17.1, "unit": "µM"}, {"measurement": "TGI", "setting": "MDA-MB-231 breast", "result": 58.7, "unit": "µM"}, {"measurement": "GI50", "setting": "KM12 colon", "result": 25.6, "unit": "µM"}, {"measurement": "TGI", "setting": "KM12 colon", "result": "> 100", "unit": "µM"}, {"measurement": "GI50", "setting": "OVCAR-4 ovarian", "result": 37.9, "unit": "µM"}, {"measurement": "TGI", "setting": "OVCAR-4 ovarian", "result": "> 100", "unit": "µM"}, {"measurement": "GI50", "setting": "SN12C renal", "result": 24.8, "unit": "µM"}, {"measurement": "TGI", "setting": "SN12C renal", "result": "> 100", "unit": "µM"}, {"measurement": "GI50", "setting": "ACHN renal", "result": 27.1, "unit": "µM"}, {"measurement": "TGI", "setting": "ACHN renal", "result": 76.4, "unit": "µM"}, {"measurement": "GI50", "setting": "NCI-H23 lung", "result": 16.7, "unit": "µM"}, {"measurement": "TGI", "setting": "NCI-H23 lung", "result": 52.8, "unit": "µM"}]}]}
